{
  "source": "patent US20220186240A1",
  "about": "“FLAVONE 7-O-METHYLTRANSFERASE GENE AND USE FOR SAME” (Suntory Holdings Limited, priority 2019, published 2022)",
  "molecules": {"B1": {"name": "DN134067: oboushibana-derived flavone 7-O-methyltransferase (SEQ ID NO: 34/35), expressed in E. coli (protein)", "chain": "MEAQEDNAYMQALELQTGIDMNMTLRAAIELGILETIVGAGEGAKLAAGEISGHLPTANPEAPNMVDRMLRLLAAHNIVTCVVEGGVDGRPECKYGAAPVSKYFTGEGEMSLARKVLLATDMVTFQSWLHLKDSVINGGNAFHTAFNMSLFDKNKVDSRFNNVFNTSMKSVSLFAINKFINTYDGFSDIQVLVDVGGGIGTALYAITSKFPHIKGINFDLPQVISTAQTSYPEMEHVSGDMFASVPKGDAILLKHVLHNWEDESCLKILKTCWNSLPYKGKVIIVESVLPKAPGVSSASKYFTCLDVIMMAHFGAKLRTIEEFKELCNNAGFSSFNATYFHTYHCIMEFTK", "modifications": "Commelina communis var. hortensis"}},
  "key": {"[1]": {"system": "DN134067 (CcFn-7OMT, flavone 7-O-methyltransferase)", "assay": "Enzyme activity measurement with crude protein solution extract from E. coli expressing DN134067, HPLC of reaction solution", "assay_type": "biochemical, oboushibana (Commelina communis var. hortensis)", "settings": "for peak detected in the enzyme reaction solution / Enzyme reaction synthesis product: compound as substrate; for peak detected in the enzyme reaction solution: HPLC; for Enzyme reaction synthesis product: 30° C., SAM, ND = no product peak", "text": "With DN134067 as a candidate protein having activity of transferring a methyl group to the hydroxyl group at position 7 of flavone C-glycoside, and using pET15b (Novagen), an E. coli expression vector containing the full-length DN134067 (pET15b-DN134067) was constructed according to the manufacturer's recommended protocol.\nPlasmid pET15b-DN134067 was introduced into E. coli BL21 using One Shot BL21(DE3) (Invitrogen), according to the manufacturer's recommended protocol, to obtain E. coli transformants. The E. coli were cultured using an Overnight Express Autoinduction System 1 (Novagen), according to the manufacturer's recommended protocol. The E. coli transformants were cultured at 37° C. (approximately 4 hours) with 2 ml of prepared culture solution, to an OD600 value of 0.5. The E. coli solution was added as a preculturing solution to 50 ml of culture solution, and main culturing was carried out for two nights at 16° C.\nThe E. coli solution cultured for two nights was centrifuged (3000 rpm, 4° C., 15 minutes), and the collected cells were suspended in sonic buffer (composition: 40 mM KPB (pH7.5), 1 mM dithiothreitol, 50 μM amidinophenylmethanesulfonyl fluoride hydrochloride, […], 2 mM MgCl2, 1 μM S-adenosylmethionine (SAM)). A 5 ml portion of sonic buffer was added for each 1 g of E. coli. The suspended E. coli cells were crushed by ultrasonic treatment and then centrifuged (15,000 rpm, 4° C., 10 minutes), and the supernatant was recovered. The supernatant was used as a crude protein solution extract from E. coli expressing DN134067. An Avanti HP-26XP (rotor: JA-2) (Beckman Coulter) was used for the centrifugation.\nAfter mixing 8 μl of 1 mM isovitexin (dissolved in 50% aqueous acetonitrile containing 0.1% TFA), 20 μl of 10 mM SAM, 20 μl of 10 mM MgCl2 and 10 μl of 1 M KPB (pH 7.5) and adjusting to 58 μl with water, the mixture was kept at 30° C. for 10 minutes, and then 2 μl of the crude protein solution extract from DN134067-expressing E. coli was added and enzyme reaction was carried out (30 minutes at 30° C.). Next, 100 μl of stop buffer (aqueous 90% acetonitrile solution containing 0.1% TFA) was added to stop the enzyme reaction, and the enzyme reaction solution was analyzed by high-performance liquid chromatography (Prominence by Shimadzu Corp.). Detection was at 330 nm using a Shimadzu PDA SPD-M20A as the detector. The column used was a Shim-Pack ODS 150 mm*4.6 mm (Shimadzu Corp.). Elution was performed using solution A (0.1% TFA aqueous solution) and solution B (aqueous 90% acetonitrile solution containing 0.1% TFA). The elution was with a 20-minute linear concentration gradient from a 9:1 mixture to a 8:2 mixture, a 15-minute linear concentration gradient from a 8:2 mixture to a 2:8 mixture and a 5-minute linear concentration gradient from a 2:8 mixture to a 0:10 mixture, followed by elution with a 0:10 mixture for 1 minute. The flow rate was 0.6 ml/min. As a control, the same experiment was carried out using a crude protein solution extract from E. coli in which pET15b vector without the insert had been introduced.\nWhen enzyme reaction was conducted using an anthocyanin (delphinidin 3-glycoside, petunidin 3-glycoside or delphinidin 3,5-diglycoside) as the substrate, the enzyme reaction conditions were 30° C., 15 minutes, and an aqueous 90% acetonitrile solution containing 0.1% TFA and 0.24 N hydrochloric acid was used as the stop buffer. A Shimadzu PDA SPD-M20A detector was used for detection at 520 nm during analysis of the enzyme reaction solution by high-performance liquid chromatography (Prominence (Shimadzu Corp.)). The column used was a Shodex RSpak DE-413 L (Shodex). Elution was performed using solution A (0.1% TFA aqueous solution) and solution B (aqueous 90% acetonitrile solution containing 0.1% TFA). Elution was performed with a 15-minute linear concentration gradient from an 8:2 mixture to a 0:10 mixture, and subsequent elution for 5 minutes with a 0:10 mixture. […]"}, "[2]": {"assay": "Simulation of flavone C-glycoside (isoorientin, swertisin) copigment effect with malvin, absorption spectra", "assay_type": "physicochemical", "settings": "for Absorption maximum of malvin solution with addition of flavone C-glycoside (λmax): flavone C-glycoside at 10-equivalent molar concentration, pH 5.0, malvin 0.5 mM", "experimental": "An anthocyanin (malvin) and flavone C-glycoside were prepared to simulate the copigment effect of the flavone C-glycoside on malvin. The malvin (malvidin 3,5-diglycoside) and flavone C-glycosides (isoorientin, swertisin) used in this experiment were purchased from Nacalai Tesque, Inc.\nEach flavone C-glycoside (isoorientin or swertisin) was added to the malvin at 10-equivalent molar concentration in a buffering solution at pH 5.0, and the absorption spectra were measured. The malvin concentration was 0.5 mM.\nAddition of the flavone C-glycoside increased the absorbance of the malvin solution, shifting the absorption maximum (λmax) toward the long wavelength end. The absorption maximum was shifted further toward the long wavelength end with addition of swertisin than with isoorientin."}, "[3]": {"assay": "Simulation of flavone C-glycoside (isovitexin) copigment effect with anthocyanin, absorption spectra", "assay_type": "physicochemical", "settings": "for Absorption maximum of anthocyanin solution with addition of flavone C-glycoside (λmax): pH 4.5, anthocyanin 0.5 mM", "experimental": "An anthocyanin and flavone C-glycoside were prepared to simulate the copigment effect of flavone C-glycoside on anthocyanin. The malvin (malvidin 3,5-diglycoside) and isovitexin (apigenin 6-C-glycoside) used for the experiment were purchased from Funakoshi Corp.\nThe flavone C-glycoside (isovitexin) was added to the anthocyanin (malvin) at 0, 2 and 4-equivalent molar concentrations in a buffering solution at pH 4.5, and the absorption spectra were measured. The anthocyanin concentration was 0.5 mM.\nAddition of the flavone C-glycoside increased the absorbance of the anthocyanin solution, shifting the absorption maximum (λmax) toward the long wavelength end with increasing addition of flavone C-glycoside."}},
  "data": [
    {"molecule": "O=c1cc(-c2ccc(O)cc2)oc2cc(O)cc(O)c12", "note": "[Apigenin]", "values": [
      {"measurement": "peak detected in the enzyme reaction solution", "setting": "[1]", "result": "no peak was detected in the enzyme reaction solution other than for the substrate"}
    ]},
    {"molecule": "O=c1cc(-c2ccc(O)c(O)c2)oc2cc(O)c([C@@H]3O[C@H](CO)[C@@H](O)[C@H](O)[C@H]3O)c(O)c12", "note": "[Isoorientin, luteolin 6-C-glycoside]", "values": [
      {"measurement": "Enzyme reaction synthesis product", "setting": "[1]", "result": "Swertiajaponin"},
      {"measurement": "peak detected in the enzyme reaction solution", "setting": "[1]", "result": "a peak was detected for swertiajaponin"},
      {"measurement": "Absorption maximum of malvin solution with addition of flavone C-glycoside (λmax)", "setting": "[2]", "result": 575, "unit": "nm"}
    ]},
    {"molecule": "O=c1cc(-c2ccc(O)cc2)oc2cc(O)c([C@@H]3O[C@H](CO)[C@@H](O)[C@H](O)[C@H]3O)c(O)c12", "note": "[Isovitexin, apigenin 6-C-glycoside]", "values": [
      {"measurement": "Enzyme reaction synthesis product", "setting": "[1]", "result": "Swertisin"},
      {"measurement": "peak detected in the enzyme reaction solution", "setting": "[1]", "result": "a peak for swertisin"},
      {"measurement": "copigment effect with malvin", "setting": "[3]; pH 4.5, malvin 0.5 mM", "result": "copigment effect of isovitexin is exhibited with malvin"}
    ]},
    {"molecule": "O=c1cc(-c2ccc(O)c(O)c2)oc2cc(O)cc(O)c12", "note": "[Luteolin]", "values": [
      {"measurement": "peak detected in the enzyme reaction solution", "setting": "[1]", "result": "no peak was detected in the enzyme reaction solution other than for the substrate"}
    ]},
    {"molecule": "COc1cc(-c2[o+]c3cc(O)cc(O[C@@H]4O[C@H](CO)[C@@H](O)[C@H](O)[C@H]4O)c3cc2O[C@@H]2O[C@H](CO)[C@@H](O)[C@H](O)[C@H]2O)cc(OC)c1O", "note": "[Malvin, malvidin 3,5-diglycoside]", "values": [
      {"measurement": "Absorption maximum of anthocyanin solution with addition of flavone C-glycoside (λmax)", "setting": "[3]; 0 equivalent isovitexin", "result": 531.8, "unit": "nm"},
      {"measurement": "Absorption maximum of anthocyanin solution with addition of flavone C-glycoside (λmax)", "setting": "[3]; 2 equivalents isovitexin", "result": 566.4, "unit": "nm"},
      {"measurement": "Absorption maximum of anthocyanin solution with addition of flavone C-glycoside (λmax)", "setting": "[3]; 4 equivalents isovitexin", "result": 573.0, "unit": "nm"},
      {"measurement": "Absorption maximum of malvin solution (λmax)", "setting": "[2]; malvin alone, pH 5.0, 0.5 mM", "result": 529, "unit": "nm"}
    ]},
    {"molecule": "COc1cc2oc(-c3ccc(O)cc3)cc(=O)c2c(O)c1[C@@H]1O[C@H](CO)[C@@H](O)[C@H](O)[C@H]1O", "note": "[Swertisin, apigenin 7-methyl-6-C-glycoside]", "values": [
      {"measurement": "copigment effect with malvin", "setting": "[2]; compared with isoorientin, 10 equivalents, pH 5.0", "result": "higher copigment effect with malvin"},
      {"measurement": "Absorption maximum of malvin solution with addition of flavone C-glycoside (λmax)", "setting": "[2]", "result": 579, "unit": "nm"}
    ]},
    {"molecule": "Apigenin 4′-glycoside", "values": [
      {"measurement": "peak detected in the enzyme reaction solution", "setting": "[1]", "result": "no peak was detected in the enzyme reaction solution other than for the substrate"}
    ]},
    {"molecule": "Delphinidin 3,5-diglycoside", "values": [
      {"measurement": "peak detected in the enzyme reaction solution", "setting": "[1]", "result": "no peak was detected in the enzyme reaction solution other than for the substrate"}
    ]},
    {"molecule": "Delphinidin 3-glycoside", "values": [
      {"measurement": "peak detected in the enzyme reaction solution", "setting": "[1]", "result": "no peak was detected in the enzyme reaction solution other than for the substrate"}
    ]},
    {"molecule": "Luteolin 4′-glycoside", "values": [
      {"measurement": "peak detected in the enzyme reaction solution", "setting": "[1]", "result": "no peak was detected in the enzyme reaction solution other than for the substrate"}
    ]},
    {"molecule": "Petunidin 3-glycoside", "values": [
      {"measurement": "peak detected in the enzyme reaction solution", "setting": "[1]", "result": "no peak was detected in the enzyme reaction solution other than for the substrate"}
    ]},
    {"molecule": "isovitexin 4′-glycoside [Saponarin]", "values": [
      {"measurement": "peak detected in the enzyme reaction solution", "setting": "[1]", "result": "no peak was detected in the enzyme reaction solution other than for the substrate"}
    ]},
    {"molecule": "B1", "values": [
      {"measurement": "methyl group-transfer activity", "setting": "[1]; substrate comparison", "result": "most powerful methyl group-transfer activity for isovitexin"}
    ]}
  ]
}
